From publication PMC8512853, “Synthesis, Bioactivity, Pharmacokinetic and Biomimetic Properties of Multi-Substituted Coumarin Derivatives” (Molecules, 2021)

How the values were obtained:
[1] = ABTS radical scavenging assay; conditions: 6 min
Procedure: The ABTS radical cation scavenging assay is a decolorization assay frequently used as an antioxidant activity estimation protocol. […] The absorbance is measured at 734 nm and the antioxidant capacity is compared to a standard antioxidant solution, such as ascorbic acid.
For the evaluation of antioxidant activity, the scavenging capacities of all samples were measured via the ABTS assay, as previously described by Kontogiorgis et al. with some modifications. Briefly, an ethanolic standard ABTS solution (7 mM) was prepared by the addition of ABTS salt and potassium persulfate. […] Each sample was diluted in DMSO and tested in triplicate. The tested mixture contained 10–20 µL of sample and 990–980 µL of the ABTS solution, for a total volume of 1 ml. Blank samples contained equal amounts of DMSO instead of the coumarin analogues, and ascorbic acid was used as a reference sample for the final evaluation of the ABTS scavenging capacity. All mixtures were stored at room temperature to allow decolorization and measured after 6 min. The percentage reduction of the ABTS radical was evaluated according to the following Equation (3):(3) % Reduction=Control OD (mean)−Sample OD (mean)/Control OD (mean)×100

HaCaT cells = experiment: DCF-DA assay (intracellular ROS after H2O2); format: cell-based, human; conditions: Homo sapiens, 100 μΜ, H2O2 treatment, 24 h, read-out: DCFDA Assay, % (100 μΜ)
Text: In the setting of evaluating bioactive compounds in terms of antioxidant capacity in various cell lines, DCF-DA is the most widely used assay for the detection of intracellular H2O2 and oxidative stress. DCF-DA is cell-permeable and is hydrolyzed intracellularly to the DCFH carboxylate anion, which is retained in the cell.
DCFDA is a fluorescent dye that measures the activity of hydroxyl radicals, peroxyl radicals, and other reactive oxygen species (ROS) within the cell. The DCFDA analysis protocol is based on the diffusion of DCFDA into the cell. It is then deacetylated from cellular esterases to a non-fluorescent compound, which is later oxidized by ROS to 2’,7’ -dichlorofluoroscein (DCF). The produced compound (DCF) is fluorescent and is detected by fluorescence spectroscopy at 485/535 nm (excitation/emission).
For the experimental procedure a standard solution of DCF-DA (20mM) in DMSO was prepared which was stored in the dark (−20 °C) until use. In a 96-well plate, cells were cultured to a density of 3 × 10^4 cells/well.
The cells remained in the incubator (37 °C, 5% CO2) for 24 h, after which an appropriate amount of H2O2 (2 mM) was added and the dish was returned for incubation for the next 2 h. This was followed by the addition of the test substances (100μM) and incubation for 24 h. At the end of the treatment time, all wells were washed with PBS, and DCF-DA solution (working concentration: 10 μM) (in 200 μL of nutrient) was added and incubated for 40 min.
After incubation, the medium with the DCF-DA was removed and replaced with FBS-free DMEM. The measurement of the […] was made immediately after that in a plate reader at 495/530 nm (excitation/emission).
All samples were tested in triplicates, against a control (without effects), blank (without cells), and positive control (standard 100 μM Ascorbic acid solution was used).
The percentage of antioxidant capacity (%) was calculated according to the following Equation (6) evaluating the presence of ROS [42]:(6) % AI=( OD Sample 530 nm−Blank)−(OD Control 530 nm−Blank)/(OD Control 530 nm−Blank) × 100

[2] = Hydroxyl (HO•) free radical scavenging assay (competition with DMSO)
Text: The hydroxyl (HO^•) free radical is considered as the most toxic and reactive radical among the ROS, leading to cellular or protein damage, membrane destruction, and even to cellular death when encountered in excess concentration. In this context, the evaluation of the hydroxyl radical scavenging activity of the coumarin analogues was essential. Hydroxyl radicals are mainly produced by the Haber–Weiss reaction in the presence of iron or copper ions. In this protocol, iron-EDTA solution, which catalyzes the autooxidation of ascorbic acid, was used as the hydroxyl radical generation system. In general, the hydroxyl radicals formed oxidize the DMSO to form formaldehyde. The reaction involves the initial interaction of DMSO with the hydroxyl radicals to give methyl radicals, with the final product being formaldehyde, which is determined by Nash method. The intensity of the yellow solution formed was measured at 412 nm against a reagent blank.
For the evaluation of hydroxyl radical scavenging ability, the protocol described by Kontogiorgis et al. was used. In short, each sample was tested in quadruplicate (A, B, C, D). For A and B, 10 μL of coumarin analogs diluted in DMSO (100 mM) were added; for C and D were the respective blanks. Standards (containing DMSO solution) and blanks were all prepared in a similar manner; to the latter an equal amount (10 µL) of solvent was added instead of the tested analogues. According to the protocol described by Klein et al., standard solutions of EDTA, FeCl3, ascorbic acid, and buffer solution (pH 7.4) were also added to each of the tested mixtures. All mixtures were incubated at 37 °C for 30 min, and then 1 mL of Nash solution and […] of CCl3COOH solution were added. After a 10min incubation at 60 °C to allow the formation of the yellow mixture, the absorbance was measured at […].
The results were calculated as performance percentages in relation to the respective standards and blanks according to the following Equation (4):(4) % Scavenging ability= Mean OD(A+B)−Mean OD(C+D)/Mean OD(A+B)

[3] = Inhibition of AAPH induced linoleic acid oxidation (lipid peroxidation); conditions: 100 μΜ
Text: AAPH induced linoleic acid oxidation has been developed as a quick and reliable antioxidant activity assay. It is based on the inhibition of linoleic acid oxidation, initiated by the thermal free radical producer 2,2′-azobis(2-amidinopropane) dihydrochloride (AAPH), providing a measure of how efficiently antioxidants protect against lipid oxidation in vitro. Oxidation of exogenous linoleic acid by AAPH is followed by UV spectrophotometry at 234 nm in a highly diluted sample [38].
For the reference sample in a UV cuvette, 10 μL of the test sample (100 μM diluted in DMSO), 10 μL linoleic acid (LA) (16 mM), and buffer solution (pH 7.4) were added to a final volume of 1ml. For the measurement sample, in a UV cuvette, 10 μL of test sample, 50 μL AAPH (40 mM), 10 μL LA, and buffer solution were added to a final volume of 1 mL. Standard and blank samples were prepared in the same way using DMSO (solvent) instead of the tested coumarin analogues. The absorbance was measured after 2 min at 37 °C at 234 nm. Results were obtained via the following Equation (5):(5) %Inhibition=(Standard−Blank)−(Reference Sample−Measurement Sample)/(Standard−Blank) × 100

A375 cells = experiment: MTT cytotoxicity assay, A375; format: cell-based, human; conditions: Homo sapiens, A-375, 24 h, A375, 100 μΜ, read-out: Cell Toxicity A375 % (100 μΜ)
Procedure: (§1) Furthermore, the coumarin compounds synthesized in this study were also evaluated for their cytotoxicity against A549 (adenocarcinomic human alveolar basal epithelial cells) and A375 (human melanoma) cell lines.
(§2) This protocol was used for the evaluation of cell viability and all the cell lines. It must be noted that this assay describes the count of cells that remain alive after the treatment. For the experimental procedure a standard solution of MTT 1mg/mL in PBS was prepared which after filtration ([…] filter (Millipore, Carrigtwohill, Ireland)) was stored in the dark (4–8 °C) until use. In a 96-well plate, HaCaT, A549 and A375 cells were seeded in a number of 30 × 10^4 cells/well for each evaluation series respectively. The cells were incubated (37 °C, 5% CO2) for 24 h, followed by the addition of the tested analogues (100 μM, diluted in DMEM) and another 24-h incubation. Next, appropriate amount of MTT was added in the tested wells and the plate returned to the incubator for the next 4 h for the formation of the formazan crystals. The formazan crystals were then redissolved by adding DMSO (100 μL) and stirring lightly for 40 min, after which the absorbance was measured in a plate reader at 540 nm with a reference absorbance of 720 nm.
(§3) All samples were tested in triplicate, against a control (only cells), blank (no cells), and positive control (100 μM standard silibinin solution was used as a “cell-killing” standard).

A549 cells = experiment: MTT cytotoxicity assay, A549; format: cell-based, human; conditions: Homo sapiens; A549, 100 μΜ, 24 h; read-out: Cell Toxicity A549 % (100 μΜ)
Procedure: as §1, §2, §3

[4] = MTT cell viability assay, HaCaT; format: cell-based, human; conditions: human, HaCaT cells, 100 μΜ, 24 h
Text: The MTT assay (3- [4,5-dimethylthiazol-2-yl] -2,5 diphenyl tetrazole) is based on the conversion of MTT to formazan crystals by living cells, which determines mitochondrial activity. Since for most cell populations total mitochondrial activity is related to the number of viable cells, this assay is widely used to measure the in vitro cytotoxic effects of drugs on various cell lines or primary cells. The principle of the MTT assay is that for most viable cells the mitochondrial activity is stable, and therefore, an increase or decrease in the number of viable cells is linearly related to mitochondrial activity. The mitochondrial activity of the cells is reflected by the conversion of the MTT tetrazole salt to formazan crystals (bright purple), which can be solubilized (in this protocol with DMSO) for homogeneous measurement. Thus, any increase or decrease in the number of viable cells can be detected by measuring the formazan concentration reflected in the optical density (OD) measurement at 540 nm with a reference absorption of 720 nm.
All the compounds were tested for their cytotoxic activity against blank and control samples in the human epidermal keratinocyte line (HaCaT), at the concentration of 100 μΜ, and the results are presented in Table 4.
as §2, §3

Structure (SMILES): O=C1O[C@H]([C@@H](O)CO)C(O)=C1O [Ascorbic acid, reference compound]
- ABTS^•+ % (100 μΜ) [1]: 99.1%
- inhibition at 100 µM (HaCaT cells): 87%

Structure (SMILES): Cc1c(C)c2c(c(C)c1O)CCC(C)(C(=O)O)O2 (centres unmarked) [Trolox, reference compound]
- ABTS^•+ % (100 μΜ) [1]: 92.0%
- HO^• % (100 μΜ) scavenging [2]: 85.0%
- AAPH % inhibition (100 μΜ) [3]: 92%

Structure (SMILES): COc1cc(C2Oc3cc([C@H]4Oc5cc(O)cc(O)c5C(=O)[C@@H]4O)ccc3OC2CO)ccc1O (some centres unmarked) [Silibinin, reference compound]
- cytotoxicity at 100 µM (A375 cells): 84.4%
- cytotoxicity at 100 µM (A549 cells): 78.3%
- viability at 24 h, 100 μM [4]: 35.7%
